Data: PubChem BioAssay (NCI)
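Grown in 96-well plates, cells were treated for 48 hours with each compound at five concentrations. Insufficient inhibition: endpoint recorded as highest concentration tested. Here, GI50 denotes the concentration required for 50% inhibition of growth. TGI: concentration producing complete growth inhibition.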

Tests used:
Assay in all cases: growth of human tumour cells (NCI), 48 h
PC-3 prostate = system: PC-3 prostate
CAKI-1 renal = system: CAKI-1 renal
KM12 colon = system: KM12 colon
NCI-H226 lung = system: NCI-H226 lung
OVCAR-4 ovarian = system: OVCAR-4 ovarian
UACC-257 melanoma = system: UACC-257 melanoma
CCRF-CEM leukemia = system: CCRF-CEM leukemia
COLO 205 colon = system: COLO 205 colon
EKVX NSCLC = system: EKVX NSCLC

| SMILES | TGI (PC-3 prostate) [µM] | TGI (CAKI-1 renal) [µM] | TGI (KM12 colon) [µM] | TGI (NCI-H226 lung) [µM] | TGI (OVCAR-4 ovarian) [µM] | TGI (UACC-257 melanoma) [µM] | TGI (CCRF-CEM leukemia) [µM] | TGI (COLO 205 colon) [µM] | TGI (EKVX NSCLC) [µM] | GI50 (PC-3 prostate) [µM] | GI50 (CAKI-1 renal) [µM] | GI50 (KM12 colon) [µM] | GI50 (NCI-H226 lung) [µM] | GI50 (OVCAR-4 ovarian) [µM] | GI50 (UACC-257 melanoma) [µM] | GI50 (CCRF-CEM leukemia) [µM] | GI50 (EKVX NSCLC) [µM] | GI50 (COLO 205 colon) [µM] |
| --- | --- | --- | --- | --- | --- | --- | --- | --- | --- | --- | --- | --- | --- | --- | --- | --- | --- | --- |
| CCC(O)(Cc1ccc(OC)cc1)c1ccc(OC)cc1 (stereo unspecified) | > 100 | > 100 | > 100 | > 100 | > 100 | > 100 | > 100 | > 100 | > 100 | – | – | – | – | – | – | – | – | – |
| Cc1cc2c(O)c(c1)CN(CC(=O)O)Cc1cc(C)cc(c1O)CN(CC(=O)O)Cc1cc(C)cc(c1O)CN(CC(=O)O)C2 | > 100 | > 100 | > 100 | > 100 | > 100 | > 100 | > 100 | > 100 | > 100 | – | – | – | – | – | – | – | – | – |
| COc1ccc(Nc2nc(N)c(C(=O)c3c[nH]c4ccccc34)s2)cc1 | > 100 | > 100 | 26.1 | 36.3 | > 100 | > 91.4 | 6.02 | 4.06 | > 100 | – | – | – | – | – | – | – | – | – |
| C=C(C)OCOCCOC | > 100 | > 100 | > 100 | > 100 | – | > 100 | > 100 | > 100 | > 100 | – | – | – | – | – | – | – | – | – |
| Cn1c(=O)c(-c2ccccc2)c(O)c2ccccc21 | > 100 | > 100 | > 100 | > 100 | > 100 | > 100 | > 100 | > 100 | > 100 | – | – | – | – | – | – | – | – | – |
| O=C1C=CC(=O)c2c(O)c(N3CCC[C@H]3CO)c(Cl)c(O)c21 | > 10 | 3.57 | > 6.06 | > 10 | 3.93 | 1.92 | 0.757 | 3.22 | > 10 | – | – | – | – | – | – | – | – | – |
| C/C(Cl)=N\OC(=O)Nc1ccc(C)cc1 | 29.3 | 30.4 | 35.1 | – | 32.9 | 32.9 | 6.31 | 33.3 | 32.3 | – | – | – | – | – | – | – | – | – |
| Cc1ccc(C(=O)N/N=C(\N=Nc2ccccc2)c2ccc(N(C)C)cc2)cc1 | > 100 | > 100 | > 100 | > 100 | > 100 | > 100 | > 100 | > 100 | > 100 | – | – | – | – | – | – | – | – | – |
| COc1cc(-c2n/c(=C\c3c(O)[nH]c4ccc(Cl)cc34)cc3c2=Nc2ccccc2-3)ccc1F | 5.88 | 8.66 | 5.01 | 8.15 | 3.48 | 10.9 | > 100 | – | 27.2 | 2 | 2.55 | 2.28 | 2.19 | 1.74 | 3.43 | 2.39 | 4.12 | – |
| N#C/C(=C/n1c(=S)[nH]c2ccc([N+](=O)[O-])cc21)C(N)=O | > 100 | > 100 | > 100 | > 100 | > 100 | > 100 | > 100 | > 100 | > 100 | – | – | – | – | – | – | – | – | – |
| O=C1NC2CCCCC2N=C1CC(=O)c1ccc(Br)cc1 (stereo unspecified) | > 100 | > 100 | > 100 | 81.2 | – | > 100 | > 100 | > 100 | 93.8 | – | – | – | – | – | – | – | – | – |
| O=c1cc(-c2ccncc2)[nH]c2cc3c(cc12)OCO3 | – | – | > 100 | > 100 | > 100 | > 100 | – | > 100 | > 100 | – | – | – | – | – | – | – | – | – |
| COc1cccc2c1C(=O)c1c(O)c3c(c(O)c1C2=O)C[C@H](O)C[C@@H]3OC1CC(N)C(O)C(C)O1 (stereo partly specified) | 12 | 4.83 | 10.1 | 2.81 | 21.4 | 5.15 | 6.06 | 10.3 | 20.8 | – | – | – | – | – | – | – | – | – |
| CCC(CO)Nc1nc(NCc2ccccc2)c2ncn(C(C)C)c2n1 (stereo unspecified) | 37.1 | > 82.5 | 36.3 | 39.4 | > 58.1 | > 94.7 | > 86.8 | 34.1 | 49.5 | – | – | – | – | – | – | – | – | – |
| CN1C(=O)N(C)C(O)C(Cl)(Br)C1=O (stereo unspecified) | > 100 | > 100 | > 100 | > 100 | – | > 100 | > 100 | > 100 | > 100 | – | – | – | – | – | – | – | – | – |
| COc1cc2cc(C(=O)N3C[C@H](CCl)c4c3cc(N)c3ccccc43)[nH]c2c(OC)c1OC | – | < 0.005 | 0.0922 | – | – | – | > 50 | < 0.005 | 0.0462 | – | – | 0.0115 | – | – | – | 0.005 | – | < 0.005 |
| COc1cc(C(c2c(O)c3ccccc3oc2=O)c2c(O)c3ccccc3oc2=O)cc(Br)c1O | 35 | 34.9 | 38.7 | 49.1 | 30.9 | 33 | – | 32 | 34.2 | – | – | – | – | – | – | – | – | – |
